The values below come from PubChem BioAssay AID1949 (Southern Research Institute, 2009).

In general, IC50 refers to the concentration needed to halve the response being measured.

Values after ≈ are worked out from the molar mass of the structure shown. Results filed as inconclusive are left out. Active and inactive are the calls of the source. No rule for the calls is given here.

The experiment relates to M. tuberculosis H37Rv growth inhibition. As to the kind of experiment: Mycobacterium tuberculosis H37Rv growth inhibition, cell based, confirmatory dose response (AID 1949).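 Also: bacteria grown 7 days with compound before Alamar blue readout.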
`O=C(CC1CCCCC1)c1c(O)c2ccccc2oc1=O`: the IC50 was > 50 µg/mL (inactive).
With `O=C(CSc1ccccc1)Nc1ccc(-c2nc3ccccc3c(=O)o2)cc1` the figure was 0.47 µg/mL (≈ 1.21 µM).
As for `O=C(Oc1ccccc1)c1cccc(COC(=O)c2cc3ccccc3oc2=O)c1`, the IC50 is 15.8 µg/mL (≈ 39.5 µM).
With `COc1ccc2nc(C)c3cc(C)oc3c2c1`, the IC50 was 1.82 µg/mL (≈ 8.01 µM).
Consider `O=C(Nc1cccc(C(F)(F)F)c1)N1CCN(c2cccc(C(F)(F)F)c2)CC1`, for which the IC50 is 5.09 µg/mL (≈ 12.2 µM).
With `CCOc1ccc(N2C(=O)CC(Nc3ccccc3O)C2=O)cc1` (stereo unspecified) the figure was 4.58 µg/mL (≈ 14 µM).
For the compound `Clc1ccc(SCCCn2ccnc2)cc1`, the IC50 is 2.36 µg/mL (≈ 9.34 µM).
With `COC(=O)C1=C(C)N(c2cc(Cl)cc(Cl)c2)C(=O)C1` the figure was 6.04 µg/mL (≈ 20.1 µM).
With `COc1ccc(S(=O)(=O)Nc2cc(Sc3ccccc3)c(O)c3ccccc23)cc1` the figure was 5.29 µg/mL (≈ 12.1 µM); with `Cc1ccc(Cn2c(=N)n(CC(O)c3ccc(Cl)c(Cl)c3)c3ccccc32)cc1` (stereo unspecified), 2.89 µg/mL (≈ 6.78 µM).
Regarding `Fc1ccc(C2=CC(c3ccc(Br)cc3)n3nnnc3N2)cc1` (stereo unspecified), the IC50 is 22.6 µg/mL (≈ 60.7 µM).
Turning to `CCCC(=O)NC(=S)Nc1cccc(C(F)(F)F)c1`, the IC50 is 2.69 µg/mL (≈ 9.27 µM).
With `COC(=O)c1sccc1NC(=O)c1c(F)c(F)c(F)c(F)c1F` the figure was 0.21 µg/mL (≈ 0.598 µM).
Under `CC(C)(C)c1cc(Cl)c(O)c(NC(=S)NC(=O)c2ccc(Cl)cc2)c1` stands less than 0.1 µg/mL.
Consider `Cc1ccc2cccc(OCC(=O)c3ccc(C)c(C)c3)c2n1`, for which the IC50 was 11.3 µg/mL (≈ 37.2 µM).
Consider `COc1ccc(OCC(=O)Nc2cccc(Cl)c2)cc1`, for which the IC50 is 2.78 µg/mL (≈ 9.53 µM).
With `Cn1nnnc1Sc1ccc([N+](=O)[O-])c2ncccc12` the figure was > 50 µg/mL (inactive); with `CCC(=O)Oc1cccc2ccc(/C=C/c3ccc(C(=O)OC)cc3)nc12`, 3.21 µg/mL (≈ 8.88 µM).
With `COC(=O)C(C)Oc1ccc2c(=O)c(Oc3ccc(OC)cc3)coc2c1` (stereo unspecified), the IC50 is 5.99 µg/mL (≈ 16.2 µM).
With `CCOC(=O)COc1ccc2c(C)c(CC(=O)OC)c(=O)oc2c1` the figure was 35 µg/mL (≈ 105 µM).
Take `COc1ccccc1NC(=O)C1=C(C)NC(SCC(=O)Nc2ccccc2[N+](=O)[O-])=C(C#N)C1c1ccccc1F` (stereo unspecified): the IC50 was 12 µg/mL (≈ 21 µM).
Take `COc1cccc(NC(=O)c2c(NC(=O)c3cccnc3)sc3c2CCC3)c1`: the IC50 was 0.1 µg/mL (≈ 0.254 µM).
Under `CC1C(c2ccc(Cl)cc2)NC(c2ccc(Cl)cc2)C(C)C1(O)c1ccc(F)cc1` (stereo unspecified) stands > 50 µg/mL (inactive); under `Cc1ccc2nc(-c3ccncc3)cc(C(=O)Nc3ccncc3)c2c1`, > 50 µg/mL (inactive).
Consider `Cc1ccccc1N1CCN(CC(O)COc2ccc(C(=O)c3ccccc3)cc2)CC1` (stereo unspecified), for which the IC50 is 2.81 µg/mL (≈ 6.53 µM).
Under `Cc1cc(O)ccc1Nc1nc(-c2ccccn2)cs1` stands 1.42 µg/mL (≈ 5.01 µM); under `COC(=O)c1sc2nc(-c3ccccc3)nc(N3CCN(C)CC3)c2c1C`, > 50 µg/mL (inactive).
With `CCOc1ccc(-c2[nH]ncc2-c2ccccc2)c(O)c1C` the figure was 4.39 µg/mL (≈ 14.9 µM); with `O=C(COc1cccc2ccccc12)c1ccc(Cl)cc1`, 34 µg/mL (≈ 115 µM); with `C#CCOc1c(Br)cc(/C=C/[N+](=O)[O-])cc1OC`, 38.2 µg/mL (≈ 122 µM).
With `CCc1ccc(-c2nn(-c3ccccc3)cc2CO)cc1`, the IC50 is 5.36 µg/mL (≈ 19.3 µM).
Under `CCN1CCN(c2ccc([N+](=O)[O-])c(-n3nc(-c4ccc(Cl)cc4)c4ccccc4c3=O)c2)CC1` stands 5.6 µg/mL (≈ 11.4 µM); under `CCn1c(NC(=S)Nc2ccccc2)nc2ccccc21`, > 50 µg/mL (inactive).
Take `COc1ccc(-c2csc(Nc3ccc(S(N)(=O)=O)cc3)n2)cc1`: the IC50 is 3.73 µg/mL (≈ 10.3 µM).
Consider `COc1cc2ccccc2cc1C(=O)NCCC12CC3CC(CC(C3)C1)C2`, for which the IC50 was 3.27 µg/mL (≈ 9 µM).
With `O=C(Nc1cc(Cl)ccc1O)c1cc(Cl)ccc1Cl`, the IC50 is 12.2 µg/mL (≈ 38.5 µM).
With `COC(=O)c1ccc(N2C(=O)CC(N(CCc3ccccc3)C(=S)Nc3ccccc3)C2=O)cc1` (stereo unspecified) the figure was 2.77 µg/mL (≈ 5.68 µM); with `CC(C)(C)OC(=O)CS(=O)c1ccc(S(=O)(=O)C(F)(F)F)cc1[N+](=O)[O-]` (stereo unspecified), 2.14 µg/mL (≈ 5.13 µM).
Under `Oc1ccc(CSc2ccccc2)c2cccnc12` stands 0.6 µg/mL (≈ 2.24 µM).
With `Fc1ccc(CCNC(=S)Nc2ccc(Nc3ccccc3)cc2)cc1` the figure was > 50 µg/mL (inactive); with `Cc1ccc(C)c(-c2nn(-c3cc(N4CCN(C)CC4)ccc3[N+](=O)[O-])c(=O)c3ccccc23)c1`, 1.76 µg/mL (≈ 3.75 µM).
As for `OC(CN1CCN(C(c2ccccc2)c2ccccc2)CC1)Cn1c2ccccc2c2ccccc21` (stereo unspecified), the IC50 is 10.7 µg/mL (≈ 22.5 µM).
With `COC(=O)c1ccc(COC(=O)c2ccccc2OC)cc1` the figure was 2.87 µg/mL (≈ 9.56 µM).
With `COc1ccc(OC(C)C(=O)Nc2ccc(I)cc2)cc1` (stereo unspecified) the figure was 0.32 µg/mL (≈ 0.806 µM); with `CCc1nc2ccccc2n1CC(O)COc1ccc(I)cc1` (stereo unspecified), 1.97 µg/mL (≈ 4.67 µM); with `Cc1cc2c(cc1C)N(Cc1ccc(C(C)(C)C)cc1)C1=NCCCN12`, 1.2 µg/mL (≈ 3.45 µM).
In the case of `CC(C)(C)c1ccc(C(=O)NC(=S)Nc2ccc(F)cc2)cc1Br`, the IC50 is 2.51 µg/mL (≈ 6.13 µM).
In the case of `CCOC(=O)N1CCc2c(sc(NC(=O)c3ccc([N+](=O)[O-])o3)c2C(=O)Nc2ccc(OCC)cc2)C1`, the IC50 was 5.64 µg/mL (≈ 10.7 µM).
Under `Nc1ccccc1NCCOc1ccccc1` stands 1.01 µg/mL (≈ 4.42 µM); under `COC(=O)C1=C(C)NC2=C(C(=O)CC(c3ccccc3)C2)C1c1ccccc1Br` (stereo unspecified), 7.5 µg/mL (≈ 16.6 µM); under `O=C(Nc1ccc(Br)c(C(F)(F)F)c1)c1ccccc1`, 3.26 µg/mL (≈ 9.47 µM).
